For one assay, the system named is ERK activation (p-ERK). Put plainly: Western blot for p-ERK in M2 cells. It counts as cell-based, mouse. On the procedure:
Western blots. Treated M2 cells were lysed in 1×RIPA buffer [50 mM Tris-HCL (pH 7.4), 150 mM NaCl, 1% Triton X-100, 1% sodium deoxycholate, 0.1% SDS, 1 mM EDTA, complete protease inhibitor (Roche, Basel, Switzerland) and phosphatase inhibitor (Roche, Basel, Switzerland)]. Samples were analyzed by SDS-PAGE and transferred onto PVDF membranes (Millipore, Billerica, MA). The blots were then blocked in 5% non-fat milk in TBST, followed by incubation of primary antibodies at 4° C. overnight. After washing, the blots were incubated in horseradish peroxidase (HRP)-conjugated secondary antibodies at room temperature for 1 hour. Signals were detected using ECL or ECL plus (GE healthcare, Little Chalfont, United Kingdom) followed by film development. The primary antibodies used are as follows: p-ERK (1:1,000, rabbit, Cell Signaling, Danvers, MA), ERK (1:2,000, rabbit, Cell Signaling, Danvers, MA), and β-actin (1:10,000, mouse, Sigma-Aldrich, St. Louis, MO).

For assay [1], the system named is M2 mouse MPNST cells. The experiment in a line: CellTiter-Glo cell viability assay. Particulars: 48 h, 48 h treatment. It counts as cell-based. The protocol: Cell viability assays. M2 cells were seeded at 50,000 cells per well in 96-well cell culture plates overnight. After treatment, the cells were analyzed for viability using the ATP-based CellTiter-Glo Luminescent Cell Viability Assay (Promega, Madison, WI).
Background: In ATP-based viability assays light output follows the ATP content of the culture.

The test system of assay [2] is M2 mouse MPNST cells. Put plainly: Flow cytometry for apoptosis/necrosis and cell cycle. It counts as cell-based. Particulars: 0.1, 1 and 10 μM, 24 h. On the procedure: Flow cytometry. After the relevant treatments, M2 cells were stained with PE-Annexin V (BD Pharmingen, Franklin Lakes, NJ) and 7AAD (BD Pharmingen, Franklin Lakes, NJ). For cell cycle analysis, M2 cells were stained with propidium iodide (ThermoFisher Scientific, Carlsbad, CA) after treatment. Flow cytometry was performed on a BD FACSCalibur and analyzed with the FlowJo 7.6 software.
A general note: In flow cytometry, cells or beads pass a laser one at a time.

Another assay deals with M2 MPNST tumors. Put plainly: Syngeneic subcutaneous mouse model of MPNST. In kind it is in vivo. The conditions noted are these: PD901 5 mg/kg daily oral; PTT 50 μL 1 mg/mL PBNPs intratumoral, 1.5 W/cm^2 10 minutes, once. On the procedure:
In vivo studies. 1 million M2 cells were injected into the backs of B6129SF1/J mice in 100 μL 50% phosphate buffered saline (PBS, Life Technologies, Carlsbad, CA)/50% Matrigel (Corning, Corning, NY). Treatment commenced when tumors reached 10 mm in diameter. Animals were treated in four groups: (1) Untreated (n=5): animals received no treatment, (2) PTT-treated (n=5): animals were intratumorally injected with 50 μL of 1 mg/mL PBNPs and irradiated for 10 minutes with 1.5 W/cm^2 NIR laser, (3) PD901-treated (n=5): animals were given 5 mg/kg PD901 daily by oral gavage in 0.5% hydroxypropyl methylcellulose and 0.2% Tween80, and (4) PD901 plus PTT combo-treated (n=5): animals were given both PTT and PD901 treatments as listed above. […] Tumors were measured daily by calipers. For histological analysis of the effects of the treatments, tumors were harvested eight hours post treatment (treatments described above; n=2-3 per group), processed, and stained with hematoxylin and eosin (H&E) for subsequent microscopy.

Entries after “also recorded” stand apart in the source; their conditions may differ.

A word on the IC50: it is the point on the concentration scale where inhibition reaches its midpoint. As to `O=C(NOC[C@H](O)CO)c1ccc(F)c(F)c1Nc1ccc(I)cc1F` [PD901, PD-0325901], the “p-ERK expression / ERK activation” value in the assay on ERK activation (p-ERK) (1 μM, 4 h or 8 h, versus vehicle) is reported as “effectively blocked; also recorded: markedly decreased”. The p-ERK expression result in the assay on ERK activation (p-ERK) (4 h, HIGH doses: 1.0 μM PD901, 0.05 mg/mL PBNP + 1.5 W/cm^2 laser 10 minutes) is given as “complete eradication”. The IC50 with M2 mouse MPNST cells [1] was ~1000 nM. For the same compound, the “mechanism of cell death” value in the assay on M2 mouse MPNST cells [2] is “both apoptosis (Annexin V+7AAD−) and late apoptosis/necrosis (7AAD+)”. In addition, the cell cycle effect entry in the assay on M2 mouse MPNST cells [2] (concentration-dependent) was “significant arrest of M2 cells in the G0/G1 phase”. In addition, the median survival with M2 MPNST tumors is 18 days.
